Patent US11974990B2, “TXNIP-TRX complex inhibitors and methods of using the same” (City of Hope, priority 2018, dated 2024)

Columns and labels:
[1] = Preliminary cell toxicity study in THP1 cells; format: cell-based; settings: human
TXNIP mRNA = TXNIP mRNA expression (RT-PCR) in murine MIN6 pancreatic beta cells; format: cell-based; settings: 25 mM glucose, 72 h (FIG. 11 left)
Protocol: (§1) FIG. 11. […] MIN6 cells were cultured in 25 mM glucose with C1 at uM concentrations for 72 h. Total RNA was prepared. RT-PCR was performed. Data shown are the mean+SEM from triplicates. Statistical analysis was performed for each column vs. HG DMSO using one-way ANOVA: *<0.0001.
(§2) RNA extraction and quantitative RT-PCR. RNA was extracted using the Direct-zol™ RNA MiniPrep Plus (Zymo Research). Reverse transcription of RNA samples into cDNA was performed using the GeneAmp RNA PCR Kit (Applied Biosystems), dNTP (from Roche Applied Science), Rnase inhibitor, MULV Reverse Transcriptase and Random hexamers reagent (all from Invitrogen). Diluted cDNA was quantified using real-time PCR performed with Power SYBR Green qPCR MasterMix (Applied Biosystem) and 7500 real-time PCR system (Applied Biosystems). The HPRT1 gene was used as an internal control.

THP1 cells = assay: Differential gene expression analysis by RNA-seq in high glucose treated THP1 cells; format: cell-based, human; settings: THP1, HG 25 mM 72 hr with vs without C1 5 uM
Protocol: FIG. 17. Hierarchical Clustering using differential expressed genes. Differential expression was calculated using these counts with edgeR (5, 6) version 3.0. After correcting for differences in library sizes, a fold change of >1.5 and a p-value of <0.05 were applied to select expressed genes. The corrected measures of the latter were further processed using Cluster3.0 (7) to generate a heatmap using Java TreeView. C=HG treated THP-1 cells (A, B are replicates); T=HG+C1 5 uM (C, D are replicates). […]
RNA-seq: Sequence alignment and gene counts. RNA-Seq reads were trimmed to remove sequencing adapters using Trimmomatic (Bolger et al., 2014), and polyA tails using FASTP (Chen et al., 2018). The processed reads were mapped to the human genome (hg19) using STAR software (v. 020201) (Dobin et al., 2013). […]
Differential gene expression analyses by RNA-seq. […] Differential expression analysis was conducted by adjusting read counts to normalized expression values using the TMM normalization method in edgeR package (Robinson et al., 2010). […] Next, Raw counts for each gene in the GENCODE coding gene annotation (hg19) were measured using HTseq (Anders and Huber, 2010) with an argument of “-r pos -s reserve”. Differential expression was calculated using these counts with edgeR (5, 6) version 3.0. […]

TNF-α mRNA = TNF-α mRNA expression (RT-PCR) in murine MIN6 pancreatic beta cells; format: cell-based; settings: 25 mM glucose, 72 h (FIG. 11 right)
Protocol: as §1, §2

Question: With `CC(C)C(C(=O)O)N1C(=O)c2ccncc2C1=O` (stereo not shown) [Compound C1, 2-(1,3-dioxo-1,3-dihydro-2H-pyrrolo[3,4-c]pyridin-2-yl)-3-methylbutanoic acid] as the molecule, how does the IC50 [1] read?
Answer: The IC50 was 450 µM.

Question: And the “TXNIP mRNA levels” value (TXNIP mRNA)?
Answer: The value was “decreased TXNIP”.

Question: And the “TXNIP and TNF-α expression by RNA-seq” value (THP1 cells)?
Answer: The value was “suppressed TXNIP and TNF-α”.

Question: And the “TNF-α mRNA levels” value (TNF-α mRNA)?
Answer: Its value is “did not decrease TNF-α levels”.
